Assay results published in patent US12171229B2, “Heteroaryl-triazole and heteroaryl-tetrazole compounds as pesticides” (BAYER AKTIENGESELLSCHAFT, priority 2018, dated 2024).

What was measured:
Format in all cases: in vivo
[1] = test system: Nezara viridula; test: Nezara viridula spray test; details: 96 h, after 4 days, larvae on barley plants
Experimental: Nezara viridula—Spray Test
(§1) To produce a suitable preparation of active compound, 1 part by weight of active compound is mixed with the stated amount of solvent, and the concentrate is diluted with water, containing an emulsifier concentration of 1000 ppm, to the desired concentration. Further test concentrations are prepared by dilution with emulsifier containing water.
Barley plants (Hordeum vulgare) infested with larvae of the southern green stink bug (Nezara viridula) are sprayed with a test solution containing the desired concentration of the active ingredient.
After 4 days mortality in % is determined. 100% means all the stink bugs have been killed: 0% means none of the stink bugs have been killed.

[2] = test system: Ctenocephalides felis; test: Ctenocephalides felis oral test; details: 48 h, 100 ppm in cattle blood, after 2 days, adult unfed cat fleas
Experimental: Ctenocephalides Felis—Oral Test
Solvent: dimethyl sulfoxide
To produce a suitable preparation of active compound, 10 mg of active compound are dissolved in 0.5 ml solvent, and the concentrate is diluted with cattle blood to the desired concentration.
Approximately 20 adult unfed cat fleas (Ctenocephalides felis) are placed in flea chambers. The blood chamber, sealed with parafilm on the bottom, are filled with cattle blood supplied with compound solution and placed on the gauze covered top of the flea chamber, so that the fleas are able to suck the blood. The blood chamber is heated to 37° C. whereas the flea chamber is kept at room temperature.
After 2 days mortality in % is determined. 100% means all the fleas have been killed; 0% means none of the fleas have been killed.

[3] = test system: Diabrotica balteata; test: Diabrotica balteata spray test; details: after 7 days, larvae on wheat seeds; for pest or weed control at 80 µg/disc, 250 g/ha / pest or weed control at 160 µg/disc, 500 g/ha: Diabrotica balteata, in Triticum aestivum, 168 h, read-out: efficacy (seedlings grown up); for pest or weed control at 80 µg/disc, 250 g/ha: 80 μg/well (=250 g/ha)
Experimental: Diabrotica balteata—Spray Test [table] To produce a suitable preparation of active compound, 1 part by weight of active compound is mixed with the stated amount of solvent, and the concentrate is diluted with water, containing an emulsifier concentration of 1000 ppm, to the desired concentration. Further test concentrations are prepared by dilution with emulsifier containing water. Soaked wheat seeds (Triticum aestivum) are placed in a multiple well plate filled with agar and some water and are incubated for 1 day to germinate (5 seeds per well). The germinated wheat seeds are sprayed with a test solution containing the desired concentration of the active ingredient. Afterwards each unit is infected with 10-20 larvae of the banded cucumber beetle (Diabrotica balteata). After 7 days efficacy in % is determined. 100% means all the seedlings have grown up like in the untreated, uninfected control; 0% means none of the seedlings have grown.

[4] = test system: Spodoptera frugiperda; test: Spodoptera frugiperda spray test; details: 168 h, after 7 days, larvae on maize leaf sections
Experimental: Spodoptera frugiperda—Spray Test
as §1, with “solvents” for “solvent,”, “and” for “and the concentrate”
Maize (Zea mays) leaf sections are sprayed with a preparation of the active ingredient of the desired concentration. Once dry, the leaf sections are infested with fall armyworm larvae (Spodoptera frugiperda).
After 7 days mortality in % is determined. 100% means all caterpillars have been killed and 0% means none of the caterpillars have been killed.

[5] = test system: Boophilus microplus; test: Boophilus microplus injection test; details: 20 μg/animal injected into the abdomen, adult engorged female ticks, egg deposition after 7 days; for pest or weed control at 0.02 mg: Rhipicephalus microplus, 168 h, read-out: efficacy (infertile eggs)
Experimental: Boophilus Microplus—Injection Test Solvent: dimethyl sulfoxide To produce a suitable preparation of active compound, 10 mg of active compound are dissolved in 0.5 ml solvent, and the concentrate is diluted with solvent to the desired concentration. Five adult engorged female ticks (Boophilus microplus) are injected with 1 μl compound solution into the abdomen. The ticks are transferred into replica plates and incubated in a climate chamber. After 7 days egg deposition of fertile eggs is monitored. Eggs where fertility is not visible are stored in a climate chamber till hatching after about 42 days. An efficacy of 100% means all eggs are infertile; 0% means all eggs are fertile.

Row | SMILES | mortality at 100 ppm [2] [%] | pest or weed control at 80 µg/disc, 250 g/ha [3] [%] | pest or weed control at 160 µg/disc, 500 g/ha ([3]; 160 μg/well (=500 g/ha)) [%] | mortality at 500 g/ha [4] [%] | pest or weed control at 0.02 mg [5] [%] | also measured
1 | C[C@H](NC(=O)c1cc(Cl)cc(C(F)(F)F)c1)c1ncnn1-c1nnc(-c2ccc(F)cc2)s1 [Example I-023] |  |  |  |  |  | mortality at 100 g/ha ([1]; 100 g/ha): 100%
2 | C[C@H](NC(=O)c1cc(Cl)cc(C(F)(F)F)c1)c1ncnn1-c1ncc(Cl)s1 [Example I-090] | 100 | 100 | 100 | 100 |  | mortality at 500 g/ha [1]: 100%; mortality at 100 g/ha [4]: 100%
3 | C[C@H](NC(=O)c1cc(Cl)cc(C(F)(F)F)c1)c1ncnn1-c1ccc(-n2ccnc2)cn1 [Example I-086] | 100 | 100 |  | 83 |  | 
4 | C[C@H](NC(=O)c1cc(Cl)cc(C(F)(F)F)c1)c1ncnn1-c1ccc(OCC(F)(F)C(F)(F)F)cn1 [Example I-060] | 100 | 80 |  | 100 |  | mortality at 100 g/ha [4]: 100%
5 | C[C@H](NC(=O)c1cc(Cl)cc(C(F)(F)F)c1)c1ncnn1-c1cn(C)nc1C(F)(F)F [Example I-044] | 100 | 100 | 80 |  | 100 | 
6 | C[C@H](NC(=O)c1cc(Cl)cc(C(F)(F)F)c1)c1ncnn1-c1cn(C)nc1C(F)F [Example I-032] | 100 | 100 | 100 |  | 100 | 
7 | C[C@H](NC(=O)c1cc(Cl)cc(C(F)(F)F)c1)c1ncnn1-c1nc2ccccc2o1 [Example I-057] | 90 | 100 | 80 |  | 80 | 
8 | COc1cc(C(=O)N[C@@H](C)c2ncnn2-c2nccs2)cc(C(F)(F)F)c1 [Example I-093] | 100 | 100 | 100 | 100 |  | mortality at 500 g/ha [1]: 100%
9 | CC(C)C(=S)Nc1ccc(-n2ncnc2[C@H](C)NC(=O)c2cc(Cl)cc(C(F)(F)F)c2)nc1 [Example I-099] | 100 | 100 | 100 | 100 |  | 
10 | CC[C@H](NC(=O)c1cc(Cl)cc(OC(F)(F)F)c1)c1ncnn1-c1ccc(NC(C)=O)cn1 [Example I-095] | 100 |  |  |  |  | 
11 | C[C@H](NC(=O)c1cc(Cl)cc(C(F)(F)F)c1)c1ncnn1-c1cccc(S(C)(=O)=O)n1 [Example I-064] |  |  |  |  | 80 | 
12 | C[C@H](NC(=O)c1cc(Cl)cc(C(F)(F)F)c1)c1ncnn1C1CCS(=O)(=O)C1 (single isomer, unassigned) [Example I-025] |  |  |  |  |  | efficacy (infertile eggs) [5]: 100%; efficacy (seedlings grown up) ([3]; 160 μg/well (=500 g/ha)): 80%
13 | C[C@H](NC(=O)c1cc(Cl)cc(C(F)(F)F)c1)c1ncnn1-c1ccc(NC(=S)CC2CC2)cn1 [Example I-097] | 100 | 100 | 100 | 100 |  | 
14 | C[C@H](NC(=O)c1cc(Cl)cc(C(F)(F)F)c1)c1ncnn1-c1nc(-c2ccccc2F)cs1 [Example I-043] |  |  | 100 |  |  | 
15 | C[C@H](NC(=O)c1cc(F)cc(C(F)(F)F)c1)c1ncnn1-c1nc2ccccc2o1 [Example I-058] | 100 |  |  |  | 100 | 
16 | C[C@H](NC(=O)c1cc(Cl)cc(Cl)c1)c1ncnn1-c1nccs1 [Example I-108] |  |  | 100 | 83 |  | 

Row | SMILES | mortality at 100 ppm [2] [%] | pest or weed control at 80 µg/disc, 250 g/ha [3] [%] | pest or weed control at 160 µg/disc, 500 g/ha ([3]; 160 μg/well (=500 g/ha)) [%] | mortality at 500 g/ha [4] [%] | pest or weed control at 0.02 mg [5] [%] | also measured
17 | C[C@H](NC(=O)c1cc(Cl)cc(C(F)(F)F)c1)c1ncnn1-c1cccc(C#N)n1 [Example I-055] |  |  |  |  | 100 | 
18 | COC(=O)c1ccc(-n2ncnc2[C@H](C)NC(=O)c2cc(Cl)cc(C(F)(F)F)c2)nc1 [Example I-031] |  |  | 100 |  | 100 | 
19 | C[C@H](NC(=O)c1cc(Cl)cc(C(F)(F)F)c1)c1ncnn1-c1cccc(OCC(F)(F)F)n1 [Example I-059] |  |  | 100 |  |  | 
20 | CC[C@H](NC(=O)c1cc(C(F)(F)F)cc(C(F)(F)F)c1)c1ncnn1-c1ccc(C#N)cn1 [Example I-068] |  | 100 | 100 | 100 | 100 | mortality at 100 g/ha [4]: 100%
21 | CC[C@H](NC(=O)c1cc(Cl)cc(OC(F)(F)F)c1)c1ncnn1-c1ccc(NC(=O)C2CC2)cn1 [Example I-096] | 100 | 100 | 100 |  |  | 
22 | COc1cc(C(=O)N[C@@H](C)c2ncnn2-c2ncc(F)cc2F)cc(C(F)(F)F)c1 [Example I-102] |  | 100 |  |  |  | mortality at 500 g/ha [1]: 100%
23 | CC(NC(=O)c1cc(Cl)cc(C(F)(F)F)c1)c1ncnn1C1=NCCS1 (stereo not drawn) [Example I-075] | 100 | 100 | 100 |  |  | 
24 | C[C@H](NC(=O)c1cc(Cl)cc(C(F)(F)F)c1)c1ncnn1-c1nnc(C(F)(F)F)s1 [Example I-017] |  |  |  |  | 90 | 
25 | C[C@H](NC(=O)c1cc(Cl)cc(OC(F)(F)F)c1)c1ncnn1-c1ccc(NC(=O)C2(Cl)CC2)cn1 [Example I-113] |  |  | 80 | 100 |  | mortality at 500 g/ha [1]: 100%; mortality at 100 g/ha [4]: 80%
26 | C[C@H](NC(=O)c1cc(Cl)cc(C(F)(F)F)c1)c1ncnn1-c1nc(C(F)F)c(Cl)s1 [Example I-022] |  | 100 | 100 | 83 | 100 | 
27 | C[C@H](NC(=O)c1cc(Cl)cc(C(F)(F)F)c1)c1ncnn1-c1ccc(-n2cncn2)cn1 [Example I-087] |  |  |  | 100 |  | mortality at 100 g/ha [4]: 100%
28 | C[C@H](NC(=O)c1cc(Cl)cc(C(F)(F)F)c1)c1ncnn1-c1nc(C(F)(F)F)cs1 [Example I-084] |  | 100 | 100 |  |  | 
29 | CC(c1ncnn1-c1cnc2ccccc2n1)N(CC1CC1)C(=O)c1cc(Cl)cc(C(F)(F)F)c1 (stereo not drawn) [Example I-004] |  |  | 100 |  |  | 
30 | C[C@H](NC(=O)c1cc(Cl)cc(C(F)(F)F)c1)c1ncnn1-c1ccc(OC(F)F)cn1 [Example I-029] |  | 100 | 100 | 100 |  | mortality at 500 g/ha [1]: 100%; mortality at 100 g/ha [4]: 100%
31 | COc1cc(C(=O)N[C@@H](C)c2ncnn2-c2ccc(C#N)cn2)cc(C(F)(F)F)c1 [Example I-092] | 100 | 100 | 100 | 100 |  | mortality at 500 g/ha [1]: 90%; mortality at 100 g/ha [4]: 100%
